Consider eleven compounds from PMC9589286, “Ruthenium polypyridine complexes with triphenylamine groups as antibacterial agents against Staphylococcus aureus with membrane-disruptive mechanism” (Frontiers in Chemistry, 2022).

Data set [1] has as its system Staphylococcus aureus. Kind of data set: MIC by microdilution in TSB broth. The class given is cell-based. The note with it: 20 h. The protocol:
Antibacterial activity was evaluated by measuring MIC (minimum inhibitory concentration) and MBC (minimum bactericidal concentration) values. The MIC value was measured by the microdilution method using TSB broth with 96 well plates ([Carlsen et al., 1981]) and the MBC value was determined by LB plates. In brief, the overnight cultured bacteria were 1: 1000 diluted with fresh medium to get a bacterial suspension. After incubation at 37°C for 20 h, the growth of bacteria is monitored by observing the turbidity of the culture. The bacterial solution was diluted as above method and the complexes were incubated with bacterial solution for 2 h. Then 100 μL bacterial solution was taken for plate coating. The Staphylococcus aureus growth inhibition trend in the presence of complexes was obtained. The MBC values of complexes were determined by LB plates after culturing in the same method for 24 h. All experiments were controlled with sterile water and repeated in parallel at least three times.
Background: Broth dilution looks for growth in wells or tubes with falling amounts of substance.

Data set [2] concerns Staphylococcus aureus. Kind of data set: Checkerboard assay with antibiotics. The class given is cell-based. The note with it: for MIC of antibiotics: antibiotic alone, S. aureus; for FICI: combination of the antibiotic with Ru-3, S. aureus. The procedure: Firstly, the MIC of all selected antibiotics was determined by the above method. Staphylococcus aureus was cultured overnight and diluted 1000 times with fresh TSB. Then 200 μL the diluted bacterial suspension, 25 μL Ru-3 of gradient concentrations and 25 μL antibiotics of gradient concentrations were mixed in 96 well plates and further cultured at 37°C for 20 h. MIC values of single drug and the best combination effect (combination of MICA and MICB) were measured. Graphpad prism software was used to draw the checkerboard map and isoline map.

In data set [3] the test system is Staphylococcus aureus. Kind of data set: Drug resistance study, 20 generations at sub inhibitory concentration. Format: cell-based. Conditions: 20 passages at sublethal concentration. The procedure:
After Staphylococcus aureus was cultured for 5 h, the bacteria were diluted 1000 times with fresh TSB and the MIC of Ru-3 was measured. The bacterial solution grown at the sub inhibitory concentration of compound Ru-3 was inoculated into fresh TSB medium for 5 h, then the MIC was measured, and the above procedure was repeated for 20 generations. Ampicillin was used as the control.

For the next data set, the system named is Galleria mellonella. Briefly: Toxicity in insect model Galleria mellonella. Format: in vivo. Conditions: larvae, 120 h. The protocol: Based on the excellent antibacterial effect of Ru-3 in vitro, its biosafety was further evaluated. Firstly, the hemolytic activity of ruthenium complexes on rabbit red blood cells was measured to study their toxicity. […] In view of its good compatibility with mammalian red blood cells, the toxicity of Ru-3 to eukaryotes was also studied. Herein, Ru-3 was tested with Gallery melonella larvae. […] When the concentration of Ru-3 was 64 mg kg^−1, the survival rate was still 75%.
FIGURE 15 Test results of Ru compounds toxicity (A) % hemolysis at 256 μg ml^−1 of Ru compounds. (B) Kaplan-Meier survival curves. […] The larvae were incubated at 37.5°C and live/dead scores were conducted at 120 h (C) H&E staining images of the infected tissues with different treatments.

For data set [4], the system named is Staphylococcus aureus. Kind of data set: Nucleic acid leakage, 260 nm absorbing material. The class given is cell-based. The note with it: 100 μg/ml, 2 h. The protocol: To verify the membrane damage, the loss of 260 nm absorbing material was carried out ([Yu et al., 2021]). Briefly, overnight cultured bacteria were diluted 1:1000 in fresh TSB and shaken at 37°C for about 5 h until the exponential stage was reached. The supernatant was removed by centrifugation, then the bacteria were resuspended to OD600 = 1 with PBS, which was further treated with Ru-3 or polymyxin B and centrifuged after 2 h to precipitate bacterial cells. Subsequently, the loss of 260 nm absorbing material, including the release of DNA and RNA in the filtrate, was measured at 260 nm.

For a further data set, the system named is rabbit red blood cells. Kind of data set: Hemolytic activity on rabbit red blood cells. Format: cell-based. Conditions: 37°C, 30 min. The procedure: Obtain red blood cells from fresh sterile rabbit blood and rabbit blood was washed three times with PBS. Ru(II) complexes in 950 µL phosphoric acid buffer (PBS) of different concentrations and 50 μL red blood cells were added into a 1.5 ml sample tube, incubated at 37°C for 30 min. The negative control was red blood cell suspension containing only PBS, and the positive control was PBS containing 0.1% (V/V) Triton X-100. After incubating the mixture was centrifugated (2000 rpm for 2 min) and the supernatant (200 μL) was transfered to another 96 well plate. Finally, the hemolysis rate was calculated by measuring the absorbance at 540 nm.

Data set [5] in a line: Partition coefficient, shake flask 1-octanol/PBS. The class given is physicochemical. The procedure:
The partition coefficients of all complexes were determined by standard shake flask method in 1-octanol and buffer liquid system ([Yang et al., 2021]). In brief, the octanol/water partition coefficient is obtained by the incubation of 2 ml of 25 μg ml^−1 ruthenium complex 1-octanol and 2 ml PBS samples. After shaking the solution for 6 h, the samples were stood for 2 h. The absorbance of octanol complex at 282 nm before and after oscillation was measured. The absorbance of 1-octanol before oscillation minus the absorbance of 1-octanol after oscillation is the absorbance of the complex in water. Each experiment was repeated three times. The partition coefficient is reported as the number of octanol divided by the number of water.

Values after ≈ are worked out from the molar mass of the structure shown.

In the data set on Staphylococcus aureus [1] (S. aureus, 37°C), `O.O.O.[Cl][Ru]([Cl])[Cl]` [RuCl3∙3H2O] gave a minimal inhibitory concentration (MIC) of over 256 µg/mL.
For the compound `O=C(N[C@H](CO)[C@H](O)c1ccc([N+](=O)[O-])cc1)C(Cl)Cl` [Chloramphenicol], in the data set on Staphylococcus aureus [2], the MIC of antibiotics was 6.25 µg/mL and the FICI is on record as 0.50.
As to `CC1(C)S[C@@H]2[C@H](NC(=O)[C@H](N)c3ccccc3)C(=O)N2[C@H]1C(=O)O` [Ampicillin, reference compound], the “increase of MIC value after 20 generations” value in the data set with Staphylococcus aureus [3] was “more than 1024 times”. In the data set with Staphylococcus aureus [2], the MIC of antibiotics is 0.39 µg/mL and the FICI came out at 0.38. In the data set with Galleria mellonella, the Kaplan-Meier survival curve entry is “coincides with control’s curve”.
For the compound `Cc1ccc(N(c2ccc(C)cc2)c2ccc(-c3nc4c5cccnc5c5ncccc5c4[nH]3)cc2)cc1` [PMA], in the data set on Staphylococcus aureus [1] (S. aureus, 37°C), the MIC was over 256 µg/mL.
As to `CN(C)[C@@H]1C(O)=C(C(N)=O)C(=O)[C@@]2(O)C(O)=C3C(=O)c4c(O)cccc4[C@@](C)(O)[C@H]3C[C@@H]12` [Tetracycline], in the data set on Staphylococcus aureus [2], the MIC of antibiotics came out at 0.39 µg/mL and the FICI is on record as 0.50.
Take `NC[C@H]1O[C@H](O[C@H]2[C@H](O)[C@@H](O[C@H]3O[C@H](CO)[C@@H](O)[C@H](N)[C@H]3O)[C@H](N)C[C@@H]2N)[C@H](O)[C@@H](O)[C@@H]1O` [Kanamycin]: in the data set on Staphylococcus aureus [2], the MIC of antibiotics turned out to be 50.00 µg/mL and the FICI was 0.38.
In the case of Polymyxin B [reference compound], the “Δ% Nucleic acid leakage” value in the data set on Staphylococcus aureus [4] was 23%.
For [Ru(dmob)2PMA] (PF6)2 [Ru-1], the MIC with Staphylococcus aureus [1] (S. aureus, 37°C) amounted to 16 µg/mL. In the data set on rabbit red blood cells, the “% Hemolysis at 256 μg/ml” value is recorded as 8%. Moreover, in data set [5], the LgP is 1.14 and the logD o/w result was “ca. 1.1445”.
As to `CNC(C)C1CCC(N)C(OC2C(N)CC(N)C(OC3OCC(C)(O)C(NC)C3O)C2O)O1` (centres unmarked) [Gentamicin], in the data set with Staphylococcus aureus [2], the MIC of antibiotics was determined as 6.25 µg/mL and the FICI was determined as 0.38.
For the compound [Ru(bpy)2PMA] (PF6)2 [Ru-2], the MIC in the data set on Staphylococcus aureus [1] (S. aureus, 37°C) turned out to be 8 µg/mL. For the same compound, in the data set on rabbit red blood cells, the “% Hemolysis at 256 μg/ml” value is recorded as 16%. Further, in data set [5], the LgP is recorded as 0.97 and the logD o/w entry is on record as “ca. 0.9681”.
Regarding `CN[C@H](CC(C)C)C(=O)N[C@H]1C(=O)N[C@@H](CC(N)=O)C(=O)N[C@H]2C(=O)N[C@H]3C(=O)N[C@H](C(=O)N[C@H](C(=O)O)c4cc(O)cc(O)c4-c4cc3ccc4O)[C@H](O)c3ccc(c(Cl)c3)Oc3cc2cc(c3O[C@@H]2O[C@H](CO)[C@@H](O)[C@H](O)[C@H]2O[C@H]2C[C@](C)(N)[C@H](O)[C@H](C)O2)Oc2ccc(cc2Cl)[C@H]1O` [Vancomycin], the MIC in the data set with Staphylococcus aureus [1] (Staphylococcus aureus) was found to be 2 µg/mL (≈ 1.38 µM). In the data set with Staphylococcus aureus [2], the MIC of antibiotics turned out to be 2 µg/mL and the FICI was 1.00.

By MIC is commonly meant the lowest concentration found to suppress growth. A low value points to greater potency.
